From ChEMBL document CHEMBL3217436, “Synthesis of new chromeno-annulated cis-fused pyrano[3,4-c]pyran derivatives via domino Knoevenagelhetero-DielsAlder reactions and their biological evaluation towards antiproliferative activity” (Medchemcomm, 2012)

Tests used:
SK-N-SH = assay: Antiproliferative activity against human SK-N-SH cells after 48 hrs by MTT assay; type: functional, cell-based
MDA-MB-231 = assay: Antiproliferative activity against human MDA-MB-231 cells after 48 hrs by MTT assay; type: functional, cell-based; conditions: MDA-MB-231, 48 h
MRC5 = assay: Antiproliferative activity against human MRC5 cells after 48 hrs by MTT assay; type: cell-based; conditions: MRC5, 48 h
A549 = assay: Antiproliferative activity against human A549 cells after 48 hrs by MTT assay; type: functional, cell-based; conditions: A549, 48 h

| SMILES | IC50 (SK-N-SH) [µM] | IC50 (MDA-MB-231) [µM] | IC50 (A549) [µM] | IC50 (MRC5) [µM] |
| --- | --- | --- | --- | --- |
| Cc1oc2c3c(ccc2c(=O)c1C)OC[C@H]1[C@@H]3c2c(c3ccccc3oc2=O)OC1(C)C | 1.05 | > 100 | 0.1 | 0.6 |
| Cc1oc2c3c(ccc2c(=O)c1-c1ccccc1)OC[C@H]1[C@@H]3c2c(n(C)c(=O)n(C)c2=O)OC1(C)C | 10.5 | > 100 | > 100 | > 100 |
| Cc1coc2c3c(ccc2c1=O)OC[C@H]1[C@@H]3C2=C(CCCC2=O)OC1(C)C | > 100 | > 100 | > 100 | > 100 |
| Cc1oc2c3c(ccc2c(=O)c1-c1ccccc1)OC[C@H]1[C@@H]3C2=C(CCCC2=O)OC1(C)C | > 100 | > 100 | > 100 | > 100 |
| Cc1coc2c3c(ccc2c1=O)OC[C@H]1[C@@H]3C2=C(CC(C)(C)CC2=O)OC1(C)C | > 100 | > 100 | > 100 | > 100 |
| Cc1oc2c3c(ccc2c(=O)c1C)OC[C@H]1[C@@H]3CC(=O)OC1(C)C | > 100 | > 100 | 0.09 | 0.6 |
| Cc1coc2c3c(ccc2c1=O)OC[C@H]1[C@@H]3CC(=O)OC1(C)C | > 100 | > 100 | 11.2 | > 100 |
| CC(=O)C1=C(C)OC(C)(C)[C@H]2COc3ccc4c(=O)c(C)c(C)oc4c3[C@@H]12 | 10.7 | > 100 | > 100 | > 100 |
| CCOC(=O)C1=C(C)OC(C)(C)[C@H]2COc3ccc4c(=O)c(C)c(C)oc4c3[C@@H]12 | 10.8 | > 100 | 10.9 | 0.9 |

Second part, led by results:

| IC50 (SK-N-SH) [µM] | IC50 (MDA-MB-231) [µM] | IC50 (A549) [µM] | SMILES | IC50 (MRC5) [µM] |
| --- | --- | --- | --- | --- |
| 1.06 | > 100 | 0.1 | Cc1oc2c3c(ccc2c(=O)c1C)OC[C@H]1[C@@H]3c2c(n(C)c(=O)n(C)c2=O)OC1(C)C | > 100 |
| > 100 | > 100 | > 100 | Cc1oc2c3c(ccc2c(=O)c1C)OC[C@H]1[C@@H]3C2=C(CCCC2=O)OC1(C)C | > 100 |
| > 100 | > 100 | > 100 | Cc1oc2c3c(ccc2c(=O)c1C)OC[C@H]1[C@@H]3C2=C(CC(C)(C)CC2=O)OC1(C)C | > 100 |
| > 100 | > 100 | > 100 | Cc1oc2c3c(ccc2c(=O)c1-c1ccccc1)OC[C@H]1[C@@H]3C2=C(CC(C)(C)CC2=O)OC1(C)C | > 100 |
| 10.6 | > 100 | > 100 | Cc1nn(-c2ccccc2)c2c1[C@@H]1c3c(ccc4c(=O)c(C)c(C)oc34)OC[C@@H]1C(C)(C)O2 | > 100 |
| > 100 | > 100 | > 100 | Cc1nn(-c2ccccc2)c2c1[C@@H]1c3c(ccc4c(=O)c(-c5ccccc5)c(C)oc34)OC[C@@H]1C(C)(C)O2 | > 100 |
